From publication PMC12374030, “Hydroxyalkyne–Bithiophene Derivatives: Synthesis and Antileishmanial Activity” (Chemical Biology & Drug Design, 2025)
≈ marks a conversion by molar mass, not a printed value.

Columns and labels:
[1] = system: L. amazonensis promastigote forms; experiment: Antiproliferative assay (XTT); assay type: cell-based, Leishmania amazonensis
Procedure: L. amazonensis MHOM/BR/75/Josefa strain was originally isolated from a human case of CL by Dr. […]. Cuba at the University of Brasilia, Brazil (Saraiva et al. [1983]; Cuba et al. [1985]). […] The activity against promastigotes was evaluated by XTT (0.5 mg mL^-1), as previously described (Meshulam et al. [1995]). Absorbance was read in a microplate spectrophotometer (PowerWave XS; BioTek, Winooski, VT, USA) at 450 nm.

[2] = system: L. amazonensis promastigotes; experiment: Cell size (FSC-H, flow cytometry); assay type: cell-based, Leishmania amazonensis; conditions: 2 × IC50, 24 h
Procedure: Promastigotes at 1 × 10^6 parasites mL^−1 treated with BT‐1 for 24 h were washed twice and resuspended in phosphate‐buffered saline (PBS), then analyzed using a FACSCalibur flow cytometer (BD Biosciences, Franklin Lakes, NJ, USA) equipped with CellQuest software. As a positive control, […] actinomycin D was used. A total of 10,000 events were acquired in the region that corresponded to the parasites. Histograms were generated for each sample, where the forward light scatter (FSC‐H) represents the cell volume (Lazarin‐Bidóia et al. [2013]).

J774A.1 macrophages = experiment: Cytotoxicity assay in macrophages (MTT); assay type: cell-based; conditions: at 23.2 μM (IC50 against promastigotes)
[3] = system: L. amazonensis promastigotes; experiment: Reactive oxygen species production (H2DCFDA); assay type: cell-based, Leishmania amazonensis
Procedure: Promastigotes at 1 × 10^6 parasites mL^−1 treated with BT‐1 for 24 h were incubated with 10 μM H2DCFDA in the dark for 45 min. As a positive control, 50 μM H2O2 was used. The fluorescence was determined by oxidation of H2DCFDA to the fluorescent product, 2′‐7ʹ dichlorofluorescein (DCF), which was measured in a Victor X3 spectrofluorimeter (PerkinElmer, Waltham, MA, USA) at λex of 488 nm and λem of 530 nm (Shukla et al. [2012]).

[4] = system: L. amazonensis promastigotes; experiment: Cell cycle (PI-RNAse A, flow cytometry); assay type: cell-based, Leishmania amazonensis; conditions: IC50, 24 h
Procedure: Promastigotes at 1 × 10^6 parasites mL^−1 treated with BT‐1 for 24 h were fixed in 70% cold methanol in PBS at 4°C for 2 h. Afterward, the parasites were washed in PBS, 10 μg mL^−1 PI‐RNAse A was added, and the samples were incubated at 37°C for 45 min. The data acquisition and analysis were performed using a FACSCalibur flow cytometer (BD Biosciences, Franklin Lakes, NJ, USA) equipped with CellQuest software. A total of 10,000 events were acquired in the region that corresponded to the parasites. As a positive control, 40 μM miltefosine was used. The percentages of cells in each stage of the cell cycle were determined based on the intensity of the PI fluorescence, which is directly proportional to the DNA content.

[5] = system: L. amazonensis promastigote forms; experiment: Morphological and ultrastructural changes (SEM, TEM); assay type: cell-based, Leishmania amazonensis; conditions: IC50 or 2 × IC50, 72 h
Procedure: After this, the parasites were fixed in a solution of 2.5% glutaraldehyde in 0.1 M cacodylate buffer for 24 h at 4°C. For scanning electron microscopy (SEM), the parasites were dehydrated in increasing concentrations of ethanol, critical point‐dried in CO2, sputter‐coated with gold, and observed in a Quanta 250 scanning electron microscope (FEI Company, Hillsboro, OR, USA). For transmission electron microscopy (TEM), the parasites were fixed as described for SEM. After this, the parasites were postfixed in a solution of 1% OsO4, 0.8% K4[Fe(CN)6], and 10 mM CaCl2 in 0.1 M cacodylate buffer. The samples were dehydrated in increasing concentrations of acetone and embedded in Poly/Bed 812 resin. Ultrathin sections were then obtained, contrasted with uranyl acetate and lead citrate, and observed in a JEM 1400 transmission electron microscope (JEOL Ltd., Tokyo, Japan).

[6] = system: L. amazonensis promastigotes; experiment: Mitochondrial membrane potential (Rh123, flow cytometry); assay type: cell-based, Leishmania amazonensis; conditions: for Mitochondrial potential: Average (Median): 24 h, Rh123 fluorescence
Procedure: Promastigotes at 1 × 10^6 parasites mL^−1 treated with BT‐1 for 24 h were incubated with 5 μg mL^−1 Rh123, a fluorescent probe that accumulates in mitochondria, for 15 min (Menna‐Barreto, Corrêa, et al. [2009]; Menna‐Barreto, Goncalves, et al. [2009]). As a positive control, 100 μM CCCP was used. The data acquisition and analysis were performed using a FACSCalibur flow cytometer (BD Biosciences, Franklin Lakes, NJ, USA) equipped with CellQuest software. A total of 10,000 events were acquired in the region corresponding to the parasites.

[7] = system: L. amazonensis promastigotes; experiment: Lipid bodies accumulation (Nile red); assay type: cell-based, Leishmania amazonensis
Procedure: Promastigotes at 1 × 10^6 parasites mL^−1 treated with BT‐1 for 24 h were incubated with 10 μg mL^−1 Nile red, a lipophilic stain, for 30 min at 25°C. The fluorescence was measured in a Victor X3 spectrofluorimeter (PerkinElmer, Waltham, MA, USA) at λex of 485 nm and λem of 535 nm (Stefanello et al. [2014]).

[8] = Cytotoxicity assay in macrophages (MTT); assay type: cell-based; conditions: mouse, J774A.1 macrophages, pH 7.2
Procedure: L. amazonensis MHOM/BR/75/Josefa strain was originally isolated from a human case of CL by Dr. Cesar A. Cuba at the University of Brasilia, Brazil (Saraiva et al. [1983]; Cuba et al. [1985]). Promastigote forms of this strain were maintained axenically in Warren's medium (brain–heart infusion plus hemin and folic acid; pH 7.2) supplemented with 10% heat‐inactivated FBS and maintained at 25°C. J774A.1 macrophages (obtained from the Cell Bank of Rio de Janeiro, RJ, Brazil) were maintained in RPMI‐1640 medium (pH 7.2), supplemented with sodium bicarbonate, L‐glutamine, 10% FBS, and streptomycin and penicillin at 37°C in a 5% CO2 atmosphere.
Cytotoxicity was evaluated in the J774A.1 macrophages. Macrophages (5 × 10^5 cells mL^−1) were cultured in 96‐well microplates containing RPMI‐1640 medium supplemented with 10% FBS. The plates were incubated at 37°C in a 5% CO2 atmosphere for confluent growth of the cells. After 24 h, the compounds were added to each well at increasing concentrations (31.25–1000 μM) and incubated for 48 h at 37°C in a 5% CO2 atmosphere. The cytotoxicity was evaluated by MTT (2 mg mL^−1), as previously described (Mosmann [1983]). Absorbance was read in a microplate spectrophotometer (PowerWave XS; BioTek, […], VT, USA) at 570 nm.

[9] = system: L. amazonensis promastigotes; experiment: Cell membrane integrity (PI, flow cytometry); assay type: cell-based, Leishmania amazonensis
Procedure: Promastigotes at 1 × 10^6 parasites mL^−1 treated with BT‐1 for 24 h were incubated with 0.2 μg mL^−1 PI for 10 min. As a positive control, 40 μM digitonin was used. The data acquisition and analysis were performed using a FACSCalibur flow cytometer (BD Biosciences, Franklin Lakes, NJ, USA) equipped with CellQuest software. A total of 10,000 events were acquired in the region that corresponded to the parasites. Alterations in PI fluorescence were quantified as the percentage increase in fluorescence compared with the untreated parasites (Lazarin‐Bidóia et al. [2013]).

[10] = system: L. amazonensis promastigotes; experiment: Lipid peroxidation assay (DPPP); assay type: cell-based, Leishmania amazonensis
Procedure: Promastigotes at 1 × 10^6 parasites mL^−1 treated with BT‐1 for 24 h were incubated with 50 μM DPPP for 15 min at 22°C. As a positive control, 50 μM H2O2 was used. The fluorescence was determined in a Victor X3 spectrofluorimeter (PerkinElmer, Waltham, MA, USA) at λex of 355 nm and λem of 460 nm. DPPP is essentially nonfluorescent until it is oxidized to a phosphine oxide (DPPP‐O) by peroxides (Okimoto et al. [2000]).

[11] = system: Leishmania amazonensis promastigote; design: method as in Takahashi et al. [2011]; conditions: previous work; ref Takahashi et al. [2011]; cited from earlier work
[12] = system: Leishmania amazonensis amastigote; design: method as in Takahashi et al. [2011]; conditions: previous work; ref Takahashi et al. [2011]; cited from earlier work

CCC(O)C#Cc1ccc(-c2ccc(C=O)s2)s1 (stereo not shown) [Compound 1]
IC50 ([1]; Leishmania amazonensis, 72 h, 25°C, XTT, read-out: L. amazonensis (promastigotes) IC50): 23.2 ± 1.1 µM | Selectivity index (SI) ([1]; ratio between the CC50 (J774A.1 macrophages) and IC50 (promastigotes)): 9.33 | decrease in cell size compared with the untreated control [2]: 1.45 fold | toxicity to J774A.1 macrophages (J774A.1 macrophages): no toxicity | increase in the production of total ROS vs untreated control ([3]; 2 × IC50, 24 h): 9.0 fold | increase in the production of total ROS vs untreated control ([3]; IC50, 24 h): 3.0 fold | increase of cells in G0/G1 phase [4]: 1.3 fold | increase of cells in sub-G0/G1 phase [4]: 2.22 fold | morphological alterations by SEM [5]: rounded shape and a reduction in cell body size, cell surface roughness, a shorter flagellum, and extravasation of cytoplasmic content | ultrastructural alterations by TEM [5]: presence of lipid bodies, loss of cell content, disorganization of the nucleus, a large amount of exocytic activity, and mitochondrial swelling | Mitochondrial potential: Average (Median) ([6]; 23.2 μM (IC50)): 1841.42 | Mitochondrial potential: Average (Median) ([6]; 46.4 μM (2 × IC50)): 796.77 | reduction of mitochondrial potential compared with the untreated control ([6]; 2 × IC50, 24 h): 2.75 fold | increase in lipid body accumulation vs untreated control ([7]; 2 × IC50, 24 h): 1.5 fold | increase in lipid body accumulation vs untreated control ([7]; IC50, 24 h): 1.4 fold | CC50 at 48 h [8]: 216 ± 5.1 µM | increase of PI-stained cells vs untreated control ([9]; 2 × IC50, 24 h): 11.13 fold | increase of PI-stained cells vs untreated control ([9]; IC50, 24 h): 3.48 fold | increase in lipoperoxidation vs untreated control ([10]; 2 × IC50, 24 h): 8.0 fold | increase in lipoperoxidation vs untreated control ([10]; IC50, 24 h): 3.0 fold

CC(=O)OCCC#Cc1ccc(-c2ccc(C)s2)s1 [I, 5′‐methyl‐(5‐[4‐acetoxy‐1‐butynyl])‐2,2′‐bithiophene]
IC50 promastigote [11]: 21.3 ± 4.4 µg/mL (≈ 73.3 µM) | IC50 amastigote [12]: 28.7 ± 2.6 µg/mL (≈ 98.8 µM)
